Tests used:
human FP receptor [1] = target: T1, human FP receptor (Homo sapiens, UniProt P43088); experiment: Total inositol phosphate accumulation, HEK-293 cells with recombinant human FP receptor; format: cell-based; parameters: expressed in transfected cells; conditions: for % maximal total inositol phosphate accumulation mean χ ± SEM: reference 17-phenyl PGF2α 10^−6 M
Description: HEK-293 cells were grown in DMEM with 10% fetal bovine serum (FBS), 250 μg ml^−1 G418 (Life Technologies) and 200 μg ml^−1 gentamicin or penicillin/streptomycin. […] For transfection, the cells were grown to 50-60% confluency on 10 cm plates. The plasmid pCEP4 incorporating cDNA inserts for the human FP receptor (20 μg) was added to 500 μl of 250 mM CaCl2. HEPES buffered saline×2 (2×HBSS, 280 mM NaCl, 20 mM HEPES acid, 1.5 mM Na2 HPO4, pH 7.05-7.12) was then added dropwise to a […], with continuous vortexing at room temperature. After 30 min, 9 ml DMEM were added to the mixture. The DNA/DMEM/calcium phosphate mixture was then added to the cells, which had been previously rinsed with 10 ml phosphate buffered saline (PBS). The cells were then incubated for 5 h. at 37° C. in humidified 95% air/5% CO2. The calcium phosphate solution was then removed and the cells were treated with 10% glycerol in DMEM for 2 min. The glycerol solution was then replaced by DMEM with 10% fetal bovine serum (FBS). The cells were incubated overnight and the medium was replaced by DMEM/10% FBS containing 250 μg ml^−1 G418 and penicillin/streptomycin. The following day hygromycin B was added to a final concentration of 200 μg ml^−1.
Receptor-mediated phosphoinositide (PI) hydrolysis was determined by measuring the accumulation of total inositol phosphates (IP) in cells preincubated with ^3H-myoinositol. Stable cell lines of HEK 293 cells expressing human or cat FP receptors were plated in 10 cm dishes (10^6 cells per dish in DMEM with 10% FBS). The following day, the cells were incubated with 18 μCi myo-[2 ^3H] inositol (Amersham; […]) in 6 ml of DMEM with 10% FBS for 24 hours at 37° C. The cells were then rinsed twice with phosphate buffered saline (PBS), incubated for 5 min with 1 ml of trypsin-EDTA, and suspended in 10 ml DMEM containing 25 mM HEPES buffer. Cells were pelleted at 1000 rpm and resuspended in DMEM/25 mM HEPES containing 10 mM LiCl for 10 minutes. Aliquots of 200 μl cell suspension were incubated with 50 μl drug for 30 minutes at 37° C. (duplicate determination), and agonist stimulation was terminated with a 750 μl mixture of chloroform:methanol:4N HCl (100:200:2), followed by addition of 250 μl of chloroform and 0.5 N HCl for extraction of inositol phosphates. A 750 μl volume of the aqueous layer was loaded on columns packed with 0.5 ml of Dowex AG 1-X8 anion-exchange resin (formate form, 100-200 mesh; BioRad) to separate radiolabeled components. The elution procedure consisted of three 3 ml washes with 5 mM inositol, then two elutions with 750 μl of 1.3 M ammonium formate with 0.1 M formic acid. The eluate was mixed with 10 ml Aquasol scintillation fluid (Packard Instrument Co.) and total [^3H] inositol phosphates was determined by a liquid scintillation counter.

[2] = target: T2, recombinant feline FP receptor (Felis catus, UniProt A0ABI7XJ69); experiment: Total inositol phosphate accumulation, HEK-293 cells with recombinant feline FP receptor; format: cell-based, cat; conditions: read-out: E.C.50, total inositol phosphate accumulation
T2 sequence (A0ABI7XJ69 entry or part of it): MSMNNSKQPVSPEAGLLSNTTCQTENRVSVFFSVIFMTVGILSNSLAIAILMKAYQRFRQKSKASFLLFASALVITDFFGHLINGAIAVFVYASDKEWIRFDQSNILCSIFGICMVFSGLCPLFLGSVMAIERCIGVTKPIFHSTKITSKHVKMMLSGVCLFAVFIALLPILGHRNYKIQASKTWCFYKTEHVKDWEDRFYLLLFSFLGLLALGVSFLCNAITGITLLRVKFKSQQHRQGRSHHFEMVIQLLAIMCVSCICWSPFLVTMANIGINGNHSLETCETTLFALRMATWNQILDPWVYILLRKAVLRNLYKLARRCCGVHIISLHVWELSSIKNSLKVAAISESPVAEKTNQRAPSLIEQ
Description: Ten days after transfection, hygromycin B resistant clones were individually selected and transferred to a separate well on a 24 well plate. At confluence each clone was transferred to one well of a 6 well plate, and then expanded in a 10 cm dish. Cells were maintained under continuous hygromycin selection until use. The stable cat FP receptor transfectants were similarly prepared using […]. Again cells were grown to 50-60% confluency on 10 cm plates and the plasmid pCEP4, incorporating cDNA inserts for the feline FP receptor, was transfected using lipofectin. Hygromycin B selection was started 48 hr post-transfection. Eight days after transfection, hygromycin B resistant clones were selected and transferred to 24 well plates. Ca^2+ signaling studies on recombinant cat and human FP receptors were performed in an identical manner to that described for the CRL 1497 cell studies.
Receptor-mediated phosphoinositide (PI) hydrolysis was determined by measuring the accumulation of total inositol phosphates (IP) in cells preincubated with ^3H-myoinositol. Stable cell lines of HEK 293 cells expressing human or cat FP receptors were plated in 10 cm dishes (10^6 cells per dish in DMEM with 10% FBS). […] The eluate was mixed with 10 ml Aquasol scintillation fluid (Packard Instrument Co.) and total [^3H] inositol phosphates was determined by a liquid scintillation counter.

[3] = target: T2, recombinant feline FP receptor; experiment: Radioligand binding competition vs 3H-17-phenyl PGF2α, recombinant feline FP receptor; parameters: species or system cat
Description: Plasma membrane preparations of HEK 293 cells stably transfected with the human or feline FP receptor were obtained as follows. Cells washed with TME buffer were scraped from the bottom of the flasks and homogenized for 30 sec using a Brinkman PT 10/35 polytron. TME buffer was added as necessary to achieve a 40 ml volume in the centrifuge tubes. […] The cell homogenate was centrifuged at 19,000 rpm for 20 min at 4-6° C. using a Beckman Ti-60 rotor. The pellet was then resuspended in TME buffer to provide a final protein concentration of 1 mg/ml, as determined by Biorad assay. […] Incubations were for 60 min at 25° C. and were terminated by the addition of 4 ml of ice-cold 50 mM TRIS-HCl followed by rapid filtration through Whatman GF/B filters and three additional 4 ml washes in a cell harvester (Brandel).

human FP receptor [4] = target: T1, human FP receptor; experiment: Radioligand binding competition vs 3H-17-phenyl PGF2α, recombinant human FP receptor; parameters: expressed in transfected cells; conditions: for % specific binding mean χ ± SEM: vs 5nM 3H-17-phenyl PGF2α, n = 3
Description: Plasma membrane preparations of HEK 293 cells stably transfected with the human or feline FP receptor were obtained as follows. Cells washed with TME buffer were scraped from the bottom of the flasks and homogenized for 30 sec using a Brinkman PT 10/35 polytron. TME buffer was added as necessary to achieve a 40 ml volume in the centrifuge tubes. TME is comprised of 100 mM TRIS base, 20 mM Mg Cl2, 2 m EDTA; physiological pH is achieved by adding 10 N HCl. The cell homogenate was centrifuged at 19,000 rpm for 20 min at 4-6° C. using a Beckman Ti-60 rotor. The pellet was then resuspended in TME buffer to provide a final protein concentration of 1 mg/ml, as determined by Biorad assay. Radioligand binding assays were performed in a 200 μl volume.
Incubations were for 60 min at 25° C. and were terminated by the addition of 4 ml of ice-cold 50 mM TRIS-HCl followed by rapid filtration through Whatman GF/B filters and three additional 4 ml washes in a cell harvester (Brandel).

T1 sequence (P43088 whole entry): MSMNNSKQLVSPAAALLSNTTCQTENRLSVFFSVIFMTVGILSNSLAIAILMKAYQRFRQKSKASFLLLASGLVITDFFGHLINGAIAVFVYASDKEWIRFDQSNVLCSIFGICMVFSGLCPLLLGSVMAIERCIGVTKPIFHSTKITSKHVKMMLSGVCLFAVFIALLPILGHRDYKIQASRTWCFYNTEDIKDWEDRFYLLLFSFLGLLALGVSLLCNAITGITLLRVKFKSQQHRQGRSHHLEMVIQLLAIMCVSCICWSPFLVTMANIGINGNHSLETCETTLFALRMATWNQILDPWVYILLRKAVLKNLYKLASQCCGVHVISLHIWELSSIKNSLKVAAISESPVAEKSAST

O=C(O)CCC/C=C\C[C@@H]1[C@@H](/C=C/[C@@H](O)CCc2ccccc2)[C@H](O)C[C@@H]1O [17-phenyl PGF2α, 17-phenyl prostaglandin F2α, reference compound]
% maximal total inositol phosphate accumulation mean χ ± SEM (human FP receptor [1]; 10^−6 M): 100 ± 1.3% | % maximal total inositol phosphate accumulation mean χ ± SEM (human FP receptor [1]; 10^−7 M): 92.3 ± 0.9% | % maximal total inositol phosphate accumulation mean χ ± SEM (human FP receptor [1]; 10^−8 M): 57.8 ± 2.0% | % maximal total inositol phosphate accumulation mean χ ± SEM (human FP receptor [1]; 10^−9 M): 14.7 ± 3.3% | EC50 (human FP receptor [1]; HEK-293 cells, recombinant human FP receptor, read-out: E.C.50, total inositol phosphate accumulation): 8 nM | EC50 [2]: 9 nM | affinity for the feline receptor ([3]; radioligand binding): high affinity | IC50 ([3]; vs 5 nM 3H-17-phenyl PGF2α, feline FP receptor, read-out: inhibitory concentration50 (I.C.50), radioligand binding): 43.5 nM | % specific binding mean χ ± SEM (human FP receptor [4]; 10^−5 M): 0 ± 0% | % specific binding mean χ ± SEM (human FP receptor [4]; 10^−6 M): 1.7 ± 1.7% | % specific binding mean χ ± SEM (human FP receptor [4]; 10^−7 M): 5.3 ± 1.5% | % specific binding mean χ ± SEM (human FP receptor [4]; 10^−8 M): 24.0 ± 1.2% | % specific binding mean χ ± SEM (human FP receptor [4]; 10^−9 M): 65.0 ± 1.0% | % specific binding mean χ ± SEM (human FP receptor [4]; 10^−10 M): 98 ± 1.1% | IC50 (human FP receptor [4]; vs 5 nM 3H-17-phenyl PGF2α, human FP receptor, read-out: I.C.50, radioligand binding): 2.3 nM
